Values quoted from earlier work as cited in patent US4788322A, “Process for preparing ACHPA” (Merck & Co., Inc., priority 1987, dated 1988).
Square brackets hold non-standard residues; d marks the D form. Peptide text beside a SMILES is read from it. * marks the point of attachment. Sta = CC(C)C[C@H](N)[C@@H](O)CC(=O)O; Isovaleryl = CC(C)CC(=O)*

System: hog renin
Conditions: after injection of hog renin into nephrectomized rats; Gross et al., Science 1972

SMILES: CC(C)CC(=O)N[C@H](C(=O)N[C@H](C(=O)N[C@@H](CC(C)C)[C@@H](O)CC(=O)N[C@@H](C)C(=O)N[C@@H](CC(C)C)[C@@H](O)CC(=O)O)C(C)C)C(C)C [pepstatin] (Isovaleryl-VV[Sta]A[Sta]-OH)
- blood pressure in vivo: reduces blood pressure
